The text below walks through data of PubChem BioAssay AID179 (DTP/NCI, 2004).

One may read the EC50 as the midpoint of the concentration-response curve. Broadly, the IC50 is the point on the concentration scale where inhibition reaches its midpoint.

The test system of this assay is CEM cells HIV-1 protection, formazan growth assay. Kind of assay: NCI AIDS Antiviral Assay. The following applies: for IC50: measured here: growth of uninfected CEM cells. The procedure, abridged: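 Human CEM cells, uninfected and HIV-1-infected, received five drug concentrations, and growth was read by soluble formazan assay. Compounds giving at least 50% protection were retested; reproducible 100% protection defined confirmed active.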

Active and inactive are the calls of the source.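 The calls were made as follows: active = compounds giving half or more protection of infected cells from virus-caused growth loss, again on retest; inactive = the rest.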 Where a SMILES comes first, the peptide text is derived from it. The star is where a group is joined. Cbz = O=C(OCc1ccccc1)*; NHNH2 = NN* Some results are limits rather than exact numbers.

Regarding `CCC(C)C(NC(=O)C(CCCC(N)=O)NC(=O)CNC(=O)C(NC(=O)C(NC(=O)C(NC(=O)C(Cc1ccccc1)NC(=O)C(C)NC(=O)C(CCCNC(=N)N)NC(=O)CNC(=O)C1CCCN1C(=O)CNC(=O)C(CCCNC(=N)N)NC(=O)C(CCCC(N)=O)NC(=O)C(NC(=O)C(CCCNC(=N)N)NC(=O)C(NC(=O)C(COC1OC(CO)C(O)C(O)C1NC(C)=O)NC(=O)C(CCCCN)NC(=O)C(CCCNC(=N)N)NC(=O)C(NC(=O)C(CC(N)=O)NC(=O)C(N)CC(N)=O)C(C)O)C(C)CC)C(C)CC)C(C)C)C(C)O)C(C)CC)C(=O)NCC(N)=O` (stereo unspecified), the EC50 is > 50.1 µM and the half-maximal inhibitory concentration (IC50) was > 50.1 µM.

For the compound `N#Cc1c(-c2ccc(NCc3nc4ccccc4[nH]3)cc2)cc(-c2ccco2)[nH]c1=O`, the EC50 was > 200 µM and the IC50 was 27.5 µM. For `COc1cccc(C=C(C#N)C#N)c1` the same measures were > 708 µM and 115 µM. As to `C[C@@H]1C[C@H]2[C@@H]3CCC4=CC(=O)C=C[C@]4(C)[C@@]3(F)[C@@H](O)C[C@]2(C)[C@H]1O`, the outcome was inactive.

Turning to `Cc1n[nH]c(=S)n1NC=O`, the EC50 is > 200 µM and the IC50 is > 200 µM. In the case of `CC(=O)C1C(=O)C(=O)N(c2ccccc2C(C)C)C1=O` (stereo unspecified), the result was inactive. The same measure, in the same setting: as for `O=c1/c(=C/c2cccc([N+](=O)[O-])c2)sc2nc3ccccc3n12`, the entry is “inactive”. In the case of `CC1OC(n2cc(C(F)(F)F)c(=O)[nH]c2=O)C=CC1O` (stereo unspecified), the EC50 was > 851 µM and the IC50 is 148 µM. For `O=C1C(Cl)C(c2ccc(Cl)cc2)N1n1cnc2ccccc2c1=O` (stereo unspecified) the same measures were > 18.6 µM and > 18.6 µM.

`O=C(CCCn1ccnc1[N+](=O)[O-])NCCn1cncc1[N+](=O)[O-]`: the EC50 was > 200 µM and the IC50 was > 200 µM.

Regarding `CCOC(=O)CCC(NC(=O)OCc1ccccc1)C(=O)NC(CCC(=O)OCC)C(=O)NN` (stereo unspecified) (Cbz-Glu(OEt)-Glu(OEt)-NHNH2; configuration not given here), the EC50 was > 200 µM and the 50% inhibitory concentration (IC50) is > 200 µM. As to `CC1=CC(=O)CCC2(C)C1CC[C@@H]2OC=O` (stereo partly specified), the result was inactive. Turning to `Cc1ccc(NC(=S)Nc2ccccc2C)nc1`, the EC50 was > 200 µM and the IC50 came out at 0.776 µM. For `NC1=C(c2nc(-c3ccccc3)cs2)C(c2ccco2)c2c(c3ccccc3oc2=O)O1` (stereo unspecified), the EC50 is > 200 µM and the IC50 was found to be 93.3 µM. Take `CC(C)(C)OC(=O)C1CC[C@@H](CC(=O)Oc2ccc([N+](=O)[O-])cc2)N1` (stereo partly specified): the EC50 is > 200 µM and the IC50 is > 200 µM. Regarding `O=C1NC(=O)c2ccc([N+](=O)[O-])c3cccc1c23`, the EC50 is > 0.871 µM and the IC50 is 0.1 µM. On the same counts, the results for `COc1ccc(C(C)(O)c2cc3ccccc3n2S(=O)(=O)c2ccccc2)cc1` (stereo unspecified) are > 200 µM and 16.2 µM. In the case of `CCCN(CCC)CCc1cc(C(C)=O)n(S(=O)(=O)c2ccc(C)cc2)c1`, the EC50 was > 589 µM and the IC50 was determined as 263 µM. On the same counts, the results for `CC(C)(C)C1=NO[C@H]2[C@@H](NC(=O)c3ccccc3)CC[C@@H]12` are > 871 µM and 302 µM.

Turning to `C[C@@H](NC(=O)[C@@H]1C[C@]1(C)CO)c1cccc2ccccc12`, the EC50 is > 200 µM and the half-maximal inhibitory concentration (IC50) is > 200 µM. As to `O=c1cc(SCc2ccccc2Cl)[nH]c(=O)[nH]1`, the EC50 was > 115 µM and the IC50 was > 115 µM.

Consider `O=C(O)c1ccccc1-c1c2ccc(=Nc3ccccc3)cc-2oc2cc(Nc3ccc(S(=O)(=O)O)cc3)ccc12`, for which the concentration giving a half-maximal response (EC50) was 14.1 µM and the half-maximal inhibitory concentration (IC50) was > 200 µM. For `Oc1ccc2ccccc2c1N=Nc1ccsc1` the same measures were > 20.4 µM and > 20.4 µM. On the same counts, the results for `S=C(NCc1ccccn1)N/N=C/c1ccccn1` are > 0.2 µM and 0.00794 µM.

Regarding `O=c1[nH]nc(-c2ccc([N+](=O)[O-])cc2)n1/N=C/c1ccc([N+](=O)[O-])cc1`, the EC50 was > 200 µM and the IC50 was 132 µM. On the same counts, the results for `Cn1c(=O)cc(N=Nc2ccc(Cl)c(Cl)c2)[nH]c1=O` are > 200 µM and 16.2 µM. Turning to `C=CS(=O)(=O)c1c2cc(OC)ccc2nc2ccc(OC)cc12`, the EC50 is > 20 µM and the IC50 was determined as 2.88 µM. Turning to `Oc1ccc2c(c1)-c1c(c3ccccc3n1CCN1CCOCC1)CC2`, the EC50 was > 200 µM and the IC50 was found to be 32.4 µM. On the same counts, the results for `COc1cc2cc3c(c(-c4ccc5c(c4)OCO5)c2c(OC)c1OC)COC3=O` are > 34.7 µM and 17.8 µM. Turning to `COc1ccc([N-]/C(=N\n2c(=O)c(C)nn(C)c2=S)N(c2ccc(OC)cc2)c2nn3c(=O)c(C)n[n+](C)c3s2)cc1`, the result was inactive. For the compound `CN(C(=O)c1cccs1)C(=S)N1CCN(c2ccccn2)CC1`, the EC50 is > 195 µM and the IC50 came out at 110 µM.

As for `CO[C@H]1C[C@](C)(O)Cc2cc3c(c(O)c21)C(=O)c1c(O)cc2c(c1C3=O)O[C@@H]1O[C@@]2(C)[C@H](O)[C@@H](N(C)C)[C@@H]1O`, the EC50 is > 6.92 µM and the concentration for half-maximal inhibition (IC50) came out at 0.0468 µM. On the same counts, the results for `NS(=O)(=O)c1ccc(NNc2c3ccccc3nc3c(C(=O)Nc4ccc(S(=O)(=O)Nc5ncccn5)cc4)cccc23)cc1` are > 50.1 µM and 26.9 µM. For `CC(=O)C1(Cc2cccc3ccccc23)S(=O)(=O)OCCOS1(=O)=O`, the EC50 is > 200 µM and the IC50 was 110 µM. For `Cc1nc(N)c(N2CCN(C#N)CC2)c(=O)[nH]1` the same measures were > 200 µM and > 200 µM. On the same counts, the results for `CN(C)c1ccc(/C=C2\CCc3ccccc3C2=O)cc1Br` are > 10.7 µM and > 10.7 µM.

`Cc1ccc(N=C2C(=Nc3ccc(C)cc3)N(c3ccc(C)cc3)C(=S)N2C(=O)c2ccccc2)cc1`: the EC50 is > 200 µM and the IC50 was > 200 µM.

For the compound `O=S1(=O)OCCOS(=O)(=O)C1Cc1nc2ccccc2[nH]1`, the EC50 was > 200 µM and the concentration for half-maximal inhibition (IC50) is 32.4 µM. For `O=C1C(c2ccccc2)=C2C(=C1c1ccccc1)c1cccc3cccc2c13`, the result was inactive.

With `Nc1c(C(=O)O)c2nc3c(CO)cccc3oc-2cc1=O`, the EC50 was > 200 µM and the half-maximal inhibitory concentration (IC50) turned out to be 2.14 µM. On the same counts, the results for `O=C(c1ccc2c(c1)OCO2)N1OC2C=CC1CC2` (stereo unspecified) are > 955 µM and 513 µM.

Take `Fc1ccc2nncc(SCc3ccccc3Cl)c2c1`: the EC50 is > 87.1 µM and the concentration for half-maximal inhibition (IC50) was 35.5 µM. On the same counts, the results for `CN1CCC2(CC1)OC(c1ccccc1)C(c1ccccc1)O2` (stereo unspecified) are > 200 µM and 115 µM. For `CC(O)C[P+](c1ccccc1)(c1ccccc1)c1ccccc1` (stereo unspecified) the same measures were > 200 µM and 15.8 µM. On to `O=C1CC(Br)C(c2ccccc2)(c2ccccc2)O1` (stereo unspecified), for which the EC50 is > 81.3 µM and the IC50 was > 81.3 µM. For the compound `Cc1cccc2c(=O)c3cccc([C@@H](C)C(=O)O)c3oc12`, the EC50 is > 200 µM and the half-inhibitory concentration (IC50) is 67.6 µM. With `CCC(C)C(NC(=O)c1ccccc1SC(=O)CCC[n+]1ccccc1)C(N)=O` (stereo unspecified), the EC50 is > 75.9 µM and the IC50 stood at 4.79 µM. As for `CN(c1ccccc1)S(=O)(=O)c1ccc(Cl)cc1`, the EC50 was > 200 µM. Turning to `COc1ccc(/C=C/c2sc3ccccc3[n+]2CCCCI)cc1OC`, the EC50 is > 200 µM and the IC50 worked out at 7.59 µM.
